Measured values: PMC4595737, “Cyclic diguanylate monophosphate directly binds to human siderocalin and inhibits its antibacterial activity” (Nature Communications, 2015)

Columns and labels:
Format in all cases: binding
Siderocalin (LCN2) [1] = molecular target: T1, Siderocalin (LCN2) (Homo sapiens, UniProt P80188); test: ITC ([…], n=[…]); UV cross-linking with c-di-[…]GMP and cold competition
T1 construct: recombinant human LCN2 (rLCN2) without a signal peptide fragment

STING = molecular target: T2, STING (Homo sapiens, UniProt Q86WV6); test: UV cross-linking with c-di-[…]GMP, SDS-PAGE autoradiography (STING as positive control)
T2 construct: gene STING1

[2] = molecular target: T3, Siderocalin (LCN2), rLCN2-W79A (Homo sapiens, UniProt P80188, W99A); test: ITC
T3 construct: recombinant human LCN2 (rLCN2) without a signal peptide fragment

Siderocalin (LCN2) [3] = molecular target: T1, Siderocalin (LCN2); test: ITC; competition with c-di-[…]GMP cross-linking

T1 sequence (P80188 21-198): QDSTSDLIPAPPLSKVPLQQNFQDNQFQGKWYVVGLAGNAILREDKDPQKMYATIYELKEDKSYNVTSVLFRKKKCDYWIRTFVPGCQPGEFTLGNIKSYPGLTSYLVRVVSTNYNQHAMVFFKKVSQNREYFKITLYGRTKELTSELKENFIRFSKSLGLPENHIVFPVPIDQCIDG
T3 sequence (P80188 21-198 W99A): as the sequence (P80188 21-198) above, with W79A counted along it
T2 sequence (Q86WV6 whole entry): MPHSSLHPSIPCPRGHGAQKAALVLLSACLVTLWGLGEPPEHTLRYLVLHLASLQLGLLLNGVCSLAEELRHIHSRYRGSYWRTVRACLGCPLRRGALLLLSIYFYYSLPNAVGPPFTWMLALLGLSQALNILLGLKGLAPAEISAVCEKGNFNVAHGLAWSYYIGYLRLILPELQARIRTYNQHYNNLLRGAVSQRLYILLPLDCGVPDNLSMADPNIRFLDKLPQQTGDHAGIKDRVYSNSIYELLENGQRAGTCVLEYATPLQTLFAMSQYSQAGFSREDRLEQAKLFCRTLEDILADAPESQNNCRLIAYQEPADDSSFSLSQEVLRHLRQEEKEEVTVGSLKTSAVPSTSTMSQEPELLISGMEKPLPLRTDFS

SMILES	Kd (Siderocalin (LCN2) [1])	UV cross-linking with c-di-[32P]GMP, SDS-PAGE autoradiography (STING as positive) (STING)	Kd [2]	Kd (Siderocalin (LCN2) [3])
Nc1nc2c(ncn2[C@@H]2O[C@@H]3COP(=O)(O)O[C@H]4[C@@H](O)[C@H](n5cnc6c(=O)[nH]c(N)nc65)O[C@@H]4COP(=O)(O)O[C@H]3[C@H]2O)c(=O)[nH]1 [c-di-GMP]	1630 ± 50 nM	STING, as a positive control, could clearly bind to the second messenger as indicated by an autoradiograph signal	–	–
O=C(N[C@H]1COC(=O)[C@@H](NC(=O)c2cccc(O)c2[O-])COC(=O)[C@@H](NC(=O)c2cccc(O)c2[O-])COC1=O)c1cccc(O)c1[O-].[Fe+3] [ferric enterobactin]	–	–	250 ± 50 nM	240 ± 30 nM
